Measurements reported in US4308380A, “2-Lower alkyl-2 or 3-cephem-4-carboxylic acid derivatives” (Fujisawa Pharmaceutical Co., Ltd., priority 1973, dated 1981).
Converted amounts (≈) assume the structure as drawn. Read-outs that look alike come from different tables or passages of the source.

Columns and labels:
[1] = tested on: Staphylococcus aureus 209 P JC-1; experiment: in vitro antimicrobial activity, two-fold agar-plate dilution method, S. aureus 209 P JC-1; assay type: cell-based; settings: read-out: minimum inhibitory concentration (MIC)
Protocol: (§1) In vitro antimicrobial activity was determined by the two-fold agar-plate dilution method as described below.
(§2) One loopful of an overnight culture of each test strain in Trypticase-soy broth (10^8 viable cells per ml) was streaked on heart infusion agar (HI-agar) containing graded concentration of antibiotics, and the minimum inhibitory concentration (MIC) was expressed in terms of meg/ml after incubation at 37° C. for 20 hours.
(§3) The data in Table 1 below present a comparison between the 2-(C1 -C6 alkyl)-cephem compounds of the present invention and known cephem compounds structurally analogous to the present compounds, differing only by alkyl substitution in the 3-position. The in vitro tests of antimicrobial activity of the compared compounds were determined by the two-fold agar plate dilution method described as follows:
as §2, with “(HI sugar)” for “(HI-agar)”, “mcg/ml” for “meg/ml”

[2] = tested on: E. coli 327; experiment: protecting effect against experimental infections in mice; assay type: in vivo, mice (male ICR strain); settings: E. coli 327, intraperitoneal inoculation 8.5×10^2 cells/mouse, subcutaneous one hour after challenge, survival after one week, probit method
Protocol: The following test describes the method of estimating the protecting effects of Applicants' compound (18) versus cited […], "Keflex", against experimental infections in mice.
Male ICR strain mice aged 4 weeks, each weighing 20-23 g were used in groups of 8 mice. The organisms precultured overnight at 37° C. on HI-agar were suspended in 5% mucin solution to obtain cell concentrations of 8.5×10^2 cells/mouse. Mice were inoculated intraperitoneally with 0.5 ml of the suspension. Each of the test antibiotics was given subcutaneously to the mice one hour after challenge. The ED50 values were found by the probit method from the number of surviving mice after one week of observation.

[3] = tested on: Staphylococcus aureus 206; experiment: in vitro antimicrobial activity, two-fold agar plate dilution method, S. aureus 206; assay type: cell-based; settings: Table 1, S. aureus 206, 37° C., 20 hours, read-out: minimum inhibitory concentration (MIC)
Protocol: (§4) The in vitro tests of antimicrobial activity of the compared compounds were determined by the two-fold agar plate dilution method described as follows: […]

[4] = tested on: Bacillus subtilis ATCC-6633; experiment: in vitro antimicrobial activity, two-fold agar-plate dilution method, B. subtilis ATCC-6633; assay type: cell-based; settings: read-out: minimum inhibitory concentration (MIC)
Protocol: as §1, §2, §3
as §2, with “(HI sugar)” for “(HI-agar)”, “mcg/ml” for “meg/ml”

[5] = tested on: E. coli 327; experiment: in vitro MIC against E. coli 327 at different inoculum sizes (Table 2); assay type: cell-based
[6] = tested on: Staphylococcus aureus 278; experiment: in vitro antimicrobial activity, two-fold agar plate dilution method, S. aureus 278; assay type: cell-based; settings: Table 1, S. aureus 278, 37° C., 20 hours, read-out: minimum inhibitory concentration (MIC)
Protocol: as §4

[7] = tested on: Staphylococcus aureus 213; experiment: in vitro antimicrobial activity, two-fold agar plate dilution method, S. aureus 213; assay type: cell-based; settings: Table 1, S. aureus 213, 37° C., 20 hours, read-out: minimum inhibitory concentration (MIC)
Protocol: as §4

[8] = tested on: Staphylococcus aureus 277; experiment: in vitro antimicrobial activity, two-fold agar plate dilution method, S. aureus 277; assay type: cell-based; settings: Table 1, S. aureus 277, 37° C., 20 hours, read-out: minimum inhibitory concentration (MIC)
Protocol: as §4

[9] = tested on: Staphylococcus aureus 226; experiment: in vitro antimicrobial activity, two-fold agar plate dilution method, S. aureus 226; assay type: cell-based; settings: Table 1, S. aureus 226, 37° C., 20 hours, read-out: minimum inhibitory concentration (MIC)
Protocol: as §4

[10] = 209PJC1, Table 1, S. aureus 209 P JC-1, 37° C., 20 hours
[11] = ATCC6633, Table 1, B. subtilis ATCC-6633, 37° C., 20 hours
[12] = Escherichia coli, 327, E. coli 327, inoculum size 10^4
[13] = Escherichia coli, 327, E. coli 327, inoculum size 10^6
[14] = Escherichia coli, 327, E. coli 327, inoculum size 10^8

| SMILES | MIC [1, 10] | ED50 [2] | MIC [3] | MIC [4, 11] | MIC [5, 12] | MIC [5, 13] | MIC [5, 14] | MIC [6] | MIC [7] | MIC [8] | MIC [9] | MIC ([1]; 209PJC1, 20 h) | MIC ([4]; ATCC6633, 20 h) |
| --- | --- | --- | --- | --- | --- | --- | --- | --- | --- | --- | --- | --- | --- |
| CC1C=C(C(=O)O)N2C(=O)C(NC(=O)C(N)c3ccccc3)C2S1 (stereo not shown) [Applicants' compound (18), 2-Methyl-7-(2-phenylglycyl)-amino-3-cephem-4-carboxylic acid] | 6.25 µg/mL (≈ 18 µM) | 0.25 mg/mouse | 12.5 µg/mL (≈ 36 µM) | 1.56 µg/mL (≈ 4.49 µM) | 12.5 µg/mL (≈ 36 µM) | 50 µg/mL (≈ 144 µM) | 100 µg/mL (≈ 288 µM) | 25 µg/mL (≈ 72 µM) | 50 µg/mL (≈ 144 µM) | 12.5 µg/mL (≈ 36 µM) | 25 µg/mL (≈ 72 µM) |  |  |
| CC1=C(C(=O)O)N2C(=O)C(NC(=O)Cc3cccs3)[C@H]2SC1 (stereo partly shown) [cited compound (5), 3-Methyl-7-[2-(2-thienyl)acetamido]-3-cephem-4-carboxylic acid, reference compound] | 3.13 µg/mL (≈ 9.25 µM) |  | 3.13 µg/mL (≈ 9.25 µM) | 0.78 µg/mL (≈ 2.3 µM) |  |  |  | 6.25 µg/mL (≈ 18.5 µM) | 12.5 µg/mL (≈ 36.9 µM) | 12.5 µg/mL (≈ 36.9 µM) | 12.5 µg/mL (≈ 36.9 µM) |  |  |
| CC1=C(C(=O)O)N2C(=O)C(NC(=O)C(O)c3ccccc3)[C@H]2SC1 (stereo partly shown) [cited compound (7), 3-Methyl-7-(2-hydroxy-2-phenylacetamido)-3-cephem-4-carboxylic acid, reference compound] | 3.13 µg/mL (≈ 8.98 µM) |  | 12.5 µg/mL (≈ 35.9 µM) | 1.56 µg/mL (≈ 4.48 µM) |  |  |  | 12.5 µg/mL (≈ 35.9 µM) | 25 µg/mL (≈ 71.8 µM) | 12.5 µg/mL (≈ 35.9 µM) | 12.5 µg/mL (≈ 35.9 µM) |  |  |
| CC1=C(C(=O)O)N2C(=O)C(NC(=O)Cc3ccccc3)[C@H]2SC1 (stereo partly shown) [cited compound (8), 3-Methyl-7-(2-phenylacetamido)-3-cephem-4-carboxylic acid, reference compound] |  |  | 6.25 µg/mL (≈ 18.8 µM) |  |  |  |  | 3.13 µg/mL (≈ 9.42 µM) | 6.25 µg/mL (≈ 18.8 µM) | 1.56 µg/mL (≈ 4.69 µM) | 3.13 µg/mL (≈ 9.42 µM) | 1.56 µg/mL (≈ 4.69 µM) | 0.78 µg/mL (≈ 2.35 µM) |
| CC1=C(C(=O)O)N2C(=O)C(NC(=O)CSc3ccccc3)C2SC1 (stereo not shown) [cited compound (9), 3-Methyl-7-(2-phenylthioacetamido)-3-cephem-4-carboxylic acid, reference compound] | 0.39 µg/mL (≈ 1.07 µM) |  | 0.39 µg/mL (≈ 1.07 µM) | 0.39 µg/mL (≈ 1.07 µM) |  |  |  | 0.39 µg/mL (≈ 1.07 µM) | 0.78 µg/mL (≈ 2.14 µM) | 0.39 µg/mL (≈ 1.07 µM) | 1.56 µg/mL (≈ 4.28 µM) |  |  |
| CC1=C(C(=O)O)N2C(=O)C(NC(=O)CSc3nncs3)[C@H]2SC1 (stereo partly shown) [cited compound (11), 3-Methyl-7-[2-(1,3,4-thiadiazol-2-ylthio)acetamido]-3-cephem-4-carboxylic acid, reference compound] | 3.13 µg/mL (≈ 8.4 µM) |  | 3.13 µg/mL (≈ 8.4 µM) | 1.56 µg/mL (≈ 4.19 µM) |  |  |  | 3.13 µg/mL (≈ 8.4 µM) | 6.25 µg/mL (≈ 16.8 µM) | 6.25 µg/mL (≈ 16.8 µM) | 6.25 µg/mL (≈ 16.8 µM) |  |  |
| CC1=C(C(=O)O)N2C(=O)C(NC(=O)Cc3cnsn3)[C@H]2SC1 (stereo partly shown) [cited compound (12), 3-Methyl-7-[2-(1,2,5-thiadiazol-3-yl)acetamido]-3-cephem-4-carboxylic acid, reference compound] | 12.5 µg/mL (≈ 36.7 µM) |  | 12.5 µg/mL (≈ 36.7 µM) | 3.13 µg/mL (≈ 9.2 µM) |  |  |  | 25 µg/mL (≈ 73.4 µM) | 25 µg/mL (≈ 73.4 µM) | 25 µg/mL (≈ 73.4 µM) | 25 µg/mL (≈ 73.4 µM) |  |  |
| CC1=C(C(=O)O)N2C(=O)C(NC(=O)CC#N)[C@H]2SC1 (stereo partly shown) [cited compound (13), 3-Methyl-7-(2-cyanoacetamido)-3-cephem-4-carboxylic acid, reference compound] | 6.25 µg/mL (≈ 22.2 µM) |  | 6.25 µg/mL (≈ 22.2 µM) | 3.13 µg/mL (≈ 11.1 µM) |  |  |  | 12.5 µg/mL (≈ 44.4 µM) | 12.5 µg/mL (≈ 44.4 µM) | 12.5 µg/mL (≈ 44.4 µM) | 12.5 µg/mL (≈ 44.4 µM) |  |  |
| C=CCSCC(=O)NC1C(=O)N2C(C(=O)O)=C(C)CS[C@H]12 (stereo partly shown) [cited compound (14), 3-Methyl-7-[2-(allylthio)acetamido]-3-cephem-4-carboxylic acid, reference compound] | 6.25 µg/mL (≈ 19 µM) |  | 6.25 µg/mL (≈ 19 µM) | 3.13 µg/mL (≈ 9.53 µM) |  |  |  | 6.25 µg/mL (≈ 19 µM) | 12.5 µg/mL (≈ 38.1 µM) | 6.25 µg/mL (≈ 19 µM) | 6.25 µg/mL (≈ 19 µM) |  |  |
| CC1=C(C(=O)O)N2C(=O)C(NC(=O)Cc3cccnc3)[C@H]2SC1 (stereo partly shown) [cited compound (15), 3-Methyl-7-[2-(3-pyridyl)acetamido]-3-cephem-4-carboxylic acid, reference compound] | 6.25 µg/mL (≈ 18.7 µM) |  | 12.5 µg/mL (≈ 37.5 µM) | 1.56 µg/mL (≈ 4.68 µM) |  |  |  | 12.5 µg/mL (≈ 37.5 µM) | 25 µg/mL (≈ 75 µM) | 6.25 µg/mL (≈ 18.7 µM) | 12.5 µg/mL (≈ 37.5 µM) |  |  |
| CC1=C(C(=O)O)N2C(=O)C(NC(=O)C(N)c3ccccc3)[C@H]2SC1 (stereo partly shown) [cited compound (18), 3-Methyl-7-(2-phenylglycyl)amino-3-cephem-4-carboxylic acid, reference compound] |  | 1.06 mg/mouse | 6.25 µg/mL (≈ 18 µM) |  | 6.25 µg/mL (≈ 18 µM) | 12.5 µg/mL (≈ 36 µM) | 100 µg/mL (≈ 288 µM) | 3.13 µg/mL (≈ 9.01 µM) | 12.5 µg/mL (≈ 36 µM) | 3.13 µg/mL (≈ 9.01 µM) | 12.5 µg/mL (≈ 36 µM) | 3.13 µg/mL (≈ 9.01 µM) | 1.56 µg/mL (≈ 4.49 µM) |
